From patent US20160354402A1, “COMPOSITIONS” (GLOBALACORN LTD, priority 2013, published 2016)
“Also recorded” adds a separate entry of the source.

What was measured:
[1] = test system: L5 interneurons in cortical slices from Tsc1+/− mice; assay: Ex vivo whole-cell patch-clamp recordings in cortical slices from Tsc1+/− mice; type: cell-based, mouse
Experimental: Wild type and Tsc1^+/− mice (P14-P16) were anaesthetized with ether and killed by decapitation in agreement with the European Directive 86/609/EEC requirements. The brain was rapidly removed and placed in an oxygenated ice-cold saline buffer. Transverse 300 μm-thick coronal slices were cut using a vibratome (Leica VT1000S; Leica Microsystems Inc., Deerfield, Ill.) in ice-cold protecting solution oxygenated with 95% O2 and 5% of CO2. Prior to recording, slices were incubated in an artificial cerebrospinal fluid (ACSF) solution containing (in mM): 125 NaCl, 3.5 KCl, 1 CaCl2, 2 MgCl2, 1.25 NaH2PO4, 26 NaHCO3, and 10 glucose, equilibrated at pH 7.3 with 95% O2 and 5% CO2 at room temperature (22-25° C.) for at least 1 h to allow recovery.
Slices were transferred to the recording chamber and perfused with oxygenated recording ACSF at 3 ml/min. Neurons were visualized using infrared differential interference contrast (IR-DIC) microscopy. […] It was not compensated and was monitored during each experiment. […]
Wild type and Tsc1^+/− mice (P14-P16) were anaesthetized, their brains removed rapidly and placed in an oxygenated ice-cold saline buffer. […] The effects of AppCH2ppA administration were monitored post slice administration ex vivo. […]

[2] = test system: Tsc1+/− mice; assay: In vivo intracortical EEG recordings of spontaneous seizures in Tsc1+/− mice (mouse model of Tuberous Sclerosis); conditions: i.p. injection
Experimental: This study followed the Institut National de la Santé et de la Recherche Médicale guidelines for animal care. All experiments were performed on postnatal days P9-P20 of inbred C57Bl6 strain of both sexes of Tsc1^mut/wt (Tsc1^+/−) mice issued from breeding of C57Bl6 Tsc1^wt females and Tsc1^mut/wt males Tsc1^mut/wt.
Surgery was performed under isoflurane anesthesia. In brief, the skull of the animal was cleaned of skin and periosteum. The skull was covered by glue and dental cement except for a 4-9 mm^2 window above the somatosensory cortex from one or two hemispheres. Two plastic bars were fixed to the nasal and occipital bones of the pups head by dental cement. After surgery, animals were warmed, and left for an hour for recovery from anesthesia. During recordings, the head was fixed to the frame of the stereotaxic apparatus by attached bars; animals were surrounded by a cotton nest and heated via a thermal pad (36.6° C.-37.7° C.). […]
Electroencephalography (EEG) recordings were performed in non-anesthetized head-restrained Tsc1^+/− and control Tsc1^wt mice. […] Recordings were analyzed off-line using Clampfit and MATLAB software. […] During EEG recordings animals were monitored visually to determine behavioral correlates of each electrographic epileptic discharge. […] Local field potentials were analyzed by the custom-written, MATLAB based programs. […]

[3] = test system: CA1 pyramidal neurons in hippocampal slices; assay: Ex vivo murine hippocampal slice model of epilepsy (picrotoxin, Mg2+-free); type: cell-based, mouse; conditions: epileptic conditions: picrotoxin 100 μM, Mg2+ free perfusion solution; dose response
Experimental: Slices were prepared and used as described previously (Melnik S, Wright M, Tanner J A, Tsintsadze T, Tsintsadze V, Miller A D, Lozovaya N (2006) Diadenosine polyphosphate analog controls postsynaptic excitation in CA3-CA1 synapses via a nitric oxide-dependent mechanism. J Pharmacol Exp Ther 318 (2):579-588. doi:10.1124/jpet.105.097642).
Slices were prepared as described previously (Melnik S, Wright M, Tanner J A, Tsintsadze T, Tsintsadze V, Miller A D, Lozovaya N (2006) Diadenosine polyphosphate analog controls postsynaptic excitation in CA3-CA1 synapses via a nitric oxide-dependent mechanism. J Pharmacol Exp Ther 318 (2):579-588. doi:10.1124/jpet.105.097642). Addition of picrotoxin (100 μM) and removal of Mg^2+ in the perfusion solution induced spontaneous epileptiform events lasted for 5-10 s (FIG. 7). […] In the continued presence of picrotoxin and Mg^2+ free extracellular solution, bursting at this rate continued for at least 2 h. The effects of AppCH2ppA administration were monitored post slice administration ex vivo (FIGS. 8 and 9a).

Row | Compound | spontaneous glutamatergic activity from L5 interneurons ([1]; bath administration, 10 μM, Vh=−70 mV, cortical slices from Tsc1+/− mice) | seizure like electrical impulses on individual cortical neurons ([1]; ex vivo, cortical slices, P14-P16 mice) | anti-epileptic effect (spontaneous seizure activity) ([2]; 30 μM in 200 μl (6 nmol; 300 nmol/kg or 0.25 mg/kg), Tsc1+/− mice) | anti-epileptic effect (spontaneous seizure activity) ([2]; 100 μM in 200 μl (20 nmol; 1000 nmol/kg or 0.84 mg/kg), Tsc1+/− mice P14-P16) | antiepileptic effect on frequency of epileptiform discharges [3]
1 | Nc1ncnc2c1ncn2[C@@H]1O[C@H](COP(=O)(O)OP(=O)(O)CP(=O)(O)OP(=O)(O)OC[C@H]2O[C@@H](n3cnc4c(N)ncnc43)C(O)C2O)C(O)C1O (some centres unmarked) [AppCH2ppA] | desensitizes glutamatergic activity relative to control | inhibits seizure like electrical impulses | partial | eliminates seizures virtually completely; also recorded: essentially complete anti-epileptic effect | 
2 | Nc1ncnc2c1ncn2[C@@H]1O[C@H](COP(=O)(O)OP(=O)(O)NP(=O)(O)OP(=O)(O)OC[C@H]2O[C@@H](n3cnc4c(N)ncnc43)[C@H](O)[C@@H]2O)[C@@H](O)[C@H]1O [AppNHppA] |  |  |  |  | completely inactive
